The text below walks through data of ChEMBL document CHEMBL1123635, “Angiotensin-converting enzyme inhibitors: perhydro-1,4-thiazepin-5-one derivatives” (J Med Chem, 1987).

This experiment has as its target T1, Angiotensin-converting enzyme (Oryctolagus cuniculus, UniProt P12822).
T1 sequence (P12822 whole entry): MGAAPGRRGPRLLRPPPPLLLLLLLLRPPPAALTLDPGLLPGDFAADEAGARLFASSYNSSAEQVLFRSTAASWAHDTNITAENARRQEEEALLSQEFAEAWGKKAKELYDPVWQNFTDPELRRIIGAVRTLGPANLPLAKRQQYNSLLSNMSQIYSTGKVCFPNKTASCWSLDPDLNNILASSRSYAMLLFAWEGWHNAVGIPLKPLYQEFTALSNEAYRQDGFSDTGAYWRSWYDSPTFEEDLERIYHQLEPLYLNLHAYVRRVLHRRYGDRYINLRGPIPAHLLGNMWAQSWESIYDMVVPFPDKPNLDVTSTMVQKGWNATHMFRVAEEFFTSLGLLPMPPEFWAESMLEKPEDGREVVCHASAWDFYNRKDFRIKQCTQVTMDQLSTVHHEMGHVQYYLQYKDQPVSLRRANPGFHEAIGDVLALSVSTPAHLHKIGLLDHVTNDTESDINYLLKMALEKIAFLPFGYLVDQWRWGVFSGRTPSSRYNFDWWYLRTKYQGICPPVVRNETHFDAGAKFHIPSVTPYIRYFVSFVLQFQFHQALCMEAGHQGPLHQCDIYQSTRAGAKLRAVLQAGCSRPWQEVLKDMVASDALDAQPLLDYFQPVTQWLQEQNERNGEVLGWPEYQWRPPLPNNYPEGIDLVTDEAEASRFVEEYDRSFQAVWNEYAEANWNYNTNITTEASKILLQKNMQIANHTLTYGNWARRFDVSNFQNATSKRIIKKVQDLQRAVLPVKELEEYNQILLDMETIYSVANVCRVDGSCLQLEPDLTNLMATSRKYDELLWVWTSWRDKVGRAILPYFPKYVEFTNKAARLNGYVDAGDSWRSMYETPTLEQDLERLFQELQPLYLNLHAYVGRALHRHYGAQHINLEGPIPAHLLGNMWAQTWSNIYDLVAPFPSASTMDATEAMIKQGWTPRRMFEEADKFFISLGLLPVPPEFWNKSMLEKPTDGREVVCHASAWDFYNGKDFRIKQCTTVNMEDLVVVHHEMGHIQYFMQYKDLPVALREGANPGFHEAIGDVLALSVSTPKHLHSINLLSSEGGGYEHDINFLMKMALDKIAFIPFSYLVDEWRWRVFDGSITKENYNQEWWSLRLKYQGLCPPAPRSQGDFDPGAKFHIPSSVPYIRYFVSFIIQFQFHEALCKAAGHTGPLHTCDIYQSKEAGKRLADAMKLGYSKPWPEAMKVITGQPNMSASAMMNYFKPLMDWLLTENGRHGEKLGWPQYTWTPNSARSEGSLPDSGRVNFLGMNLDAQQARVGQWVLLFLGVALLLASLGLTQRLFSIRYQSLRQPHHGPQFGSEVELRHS
Briefly: Inhibitory activity against rabbit lung Angiotensin I converting enzyme with 5 mM hippuryl-histidyl-leucine as substrate.
As for `O=C(O)CN1C[C@H](c2ccsc2)SC[C@H](N[C@@H](CCc2ccccc2)C(=O)O)C1=O`, the IC50 turned out to be 86.9 nM. Molecule `O=C(O)CN1C(=O)[C@@H](N[C@@H](CCc2ccccc2)C(=O)O)CSC[C@@H]1c1ccccc1` gave a 50% inhibitory concentration (IC50) of 78.2 nM. For `O=C(O)CN1C[C@@H](c2ccsc2)SC[C@H](N[C@@H](CCc2ccccc2)C(=O)O)C1=O` the value was 4.1 nM. The molecule `O=C(O)CN1C(=O)[C@@H](N[C@@H](CCc2ccccc2)C(=O)O)CSC[C@H]1c1ccccc1` had an IC50 of 3.4 nM. For `O=C(O)CN1C(=O)[C@@H](N[C@@H](CCc2ccccc2)C(=O)O)CSCC1c1cccs1` (some centres undefined) the value was 2.8 nM; for `O=C(O)CN1C[C@@H](c2ccccc2)SC[C@H](N[C@@H](CCc2ccccc2)C(=O)O)C1=O`, 3.7 nM. For `O=C(O)CN1C[C@H](c2cccs2)SC[C@H](N[C@@H](CCc2ccccc2)C(=O)O)C1=O` the value was 64.7 nM; for `O=C(O)CN1C[C@H](c2ccccc2)SC[C@H](N[C@@H](CCc2ccccc2)C(=O)O)C1=O`, 35.5 nM. For `O=C(O)CN1C[C@@H](c2cccs2)SC[C@H](N[C@@H](CCc2ccccc2)C(=O)O)C1=O` [TEMOCAPRILAT] the value was 3.6 nM.

As usually defined, the IC50 is the midpoint of a concentration-inhibition curve. Low readings indicate inhibition by little substance, high ones a need for much substance.
